In patent US8344180B2, “Hydrazine amide derivative” (Shionogi & Co., Ltd., priority 2006, dated 2013):

Target: T1, human NPY Y5 receptor (Homo sapiens, UniProt Q15761)
T1 construct: expressed in transfected cells; membranes used
T1 sequence (Q15761 1-445): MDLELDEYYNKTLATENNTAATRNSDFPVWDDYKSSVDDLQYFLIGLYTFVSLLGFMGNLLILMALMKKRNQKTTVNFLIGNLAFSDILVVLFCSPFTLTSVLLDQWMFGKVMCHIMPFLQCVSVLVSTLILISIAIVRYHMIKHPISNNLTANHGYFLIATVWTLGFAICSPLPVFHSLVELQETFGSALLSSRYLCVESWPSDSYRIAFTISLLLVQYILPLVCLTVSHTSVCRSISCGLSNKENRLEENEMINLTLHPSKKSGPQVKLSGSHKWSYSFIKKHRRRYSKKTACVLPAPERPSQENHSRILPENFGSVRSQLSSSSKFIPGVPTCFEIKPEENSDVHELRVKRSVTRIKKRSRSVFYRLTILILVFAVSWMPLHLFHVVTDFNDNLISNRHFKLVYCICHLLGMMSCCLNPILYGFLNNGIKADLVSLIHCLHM
Experiment: Affinity for NPY Y5 receptor ([125I] peptide YY binding to CHO cell membranes)
Details: membranes from CHO cells expressing NPY Y5 receptor; [125I] peptide YY 60 pM; 25° C., 2 hours; read-out: 50% inhibitory concentration of the test-compound against the specific peptide YY binding (IC50 value)
Excerpt: Experiment 1: Affinity for NPY Y5 Receptor
cDNA sequence encoding a human NPY Y5 receptor (WO96/16542) was cloned in a vector pME18S (Takebe et al. Mol. Cell. Biol. 8, 8957). The obtained expression vector was transfected into CHO cells as a host by using Lipofect AMINE reagent (Trademark, Gibco BRL Co., Ltd.) according to the instruction manual. The cells that stably express NPY Y5 receptor were obtained.
The membranes prepared from the CHO cells expressing NPY Y5 receptor, the compound of the present invention and 30,000 cpm [^125I] peptide YY (60 pM of final concentration: Amersham) were incubated in the assay buffer (20 mM HEPES-Hanks buffer containing 0.1% bovine serum albumin, pH 7.4) at 25° C. for 2 hours, and then the membrane was filtered from the mixture through a glassfilter (GF/C) presoaked with 1% polyethyleneimine. After washing with 50 mM Tris-HCl buffer (pH 7.4), radioactivity retained on the filters was quantified with a gamma counter. Nonspecific binding was defined as the amount of radioactivity bound to the membranes after incubation in the presence of 200 nM of peptide YY. The 50% inhibitory concentration of the test-compound against the specific peptide YY binding (IC50 value) was calculated (Inui, A. et al. Endocrinology 131, 2090-2096 (1992)).

Row | Compound | IC50 [nM]
1 | CC(C)S(=O)(=O)N[C@H]1CC[C@H](C(=O)NNc2ccc(Cl)c(Cl)c2)CC1 [Example I-8] | 1.1
2 | CC(C)(C)S(=O)(=O)N[C@H]1CC[C@H](C(=O)NNc2ccc(Cl)c(Cl)c2)CC1 [Example I-4] | 2.3
3 | CC(C)(C)S(=O)(=O)N[C@H]1CC[C@H](C(=O)NNc2cccc3ccccc23)CC1 [Example I-17] | 0.88
4 | CC(C)(C)S(=O)(=O)N[C@H]1CC[C@H](C(=O)NNc2cccc(-c3ccccc3)c2)CC1 [Example I-23] | 1.12
